Structures can show the parent of a compound that is named as a salt.

For experiment [1], the system named is bacterial strains that express the class D cephalosporinase OXA-15. The experiment in a line: Synergy MIC / standard BLI potentiation MIC assay, strains expressing OXA-15. Format: cell-based, E. coli. The note with it: in the presence of a β-lactam; comparator Avibactam (comparator compound CCC). The protocol:
(§1) The experimental protocol was performed according to Clinical and Laboratory Standards Institute (CLSI) guidelines with modifications as described below (CLSI guidelines can be derived from the CLSI document M07-A9 published in January 2012: “Methods for Dilution Antimicrobial Susceptibility Tests for Bacteria That Grow Aerobically; Approved Standard-Ninth Edition”).
(§2) To prepare for MIC testing, frozen glycerol stocks of clinical isolates (Klebsiella pneumoniae, Eschericia coli, Enterobacter spp, Citrobacter spp, or Pseudomonas aeruginosa) were used to streak for isolated colonies on rich, non-selective, tryptic soy agar containing 5% sheep's blood (TSAB). Frozen glycerol stocks of laboratory engineered, isogenic E. coli strains, which contain cloned β-lactamase expressing plasmids were used to streak for isolated colonies on rich, selective LB agar supplemented with 25 μg/mL tetracycline to maintain the plasmid. All strains were incubated at 37° C. for 18-24 hrs.
(§3) On the day of testing, primary cultures were started by scraping off 5-10 colonies from the TSAB plates containing clinical strains or the tetracycline supplemented LB plates containing engineered strains. The clinical strain material was suspended in ˜5 mL of cation adjusted Mueller Hinton Broth (CAMHB) in 14 mL culture tubes. The engineered strain material was suspended in CAMHB (supplemented with 25 μg/mL tetracycline) in 14 mL culture tubes. All strains were incubated at 37° C. with aeration (200 rpm) for ˜2 hrs until the optical density at 600 nm (OD600) was ≧0.1.
(§4) The two compound components of the assay were each diluted in CAMHB and added to the 96-well broth microdilution assay plates. 50 μL of the β-lactam was added to each well of the assay plate in 2-fold dilutions with final concentrations ranging from 128 to 0.13 μg/mL. 25 μL of the BLI compound was added to all wells in the broth microdilution plates at a final concentration of 4 μg/mL. Inoculum cultures were prepared by standardizing the primary cultures to OD600=0.1 and then adding 20 μL of the adjusted primary culture per 1 mL CAMHB for clinical strains or CAMHB (supplemented with tetracycline at 100 μg/mL) for engineered strains, so that the final inoculum density was ˜10^5 colony forming units per milliliter. Diluted inoculum cultures were used to inoculate 25 μL per well in 96-well broth microdilution assay plates. The final volume of each well was 100 μL and contained a β-lactam at different concentrations, a BLI compound at 4 μg/mL concentration, the bacterial culture at an OD600 of approximately 0.001 and when necessary tetracycline at 25 μg/mL.
(§5) Plates were incubated for 18-20 hours at 37° C. with aeration (200 rpm). Following incubation, growth was confirmed visually placing plates over a viewing apparatus (stand with a mirror underneath) and then OD600 was measured using a SpectraMax 340PC384 plate reader (Molecular Devices, Sunnyvale, Calif.). Growth was defined as turbidity that could be detected with the naked eye or achieving minimum OD600 of 0.1. MIC values were defined as the lowest concentration producing no visible turbidity.
(§6) The synergy MIC (sMIC) assay determines the concentration of the BLI required to potentiate the activity of a fixed concentration of a β-lactam antibiotic against β-lactamase producing bacterial strains. The experimental protocol was performed according to Clinical and Laboratory Standards Institute (CLSI) guidelines with modifications as described below (CLSI guidelines can be derived from the CLSI document M07-A9 published in January 2012: “Methods for Dilution Antimicrobial Susceptibility Tests for Bacteria That Grow Aerobically; Approved Standard-Ninth Edition”). […]

The test system of experiment [2] is bacterial strains that express KPC β-lactamases. Put plainly: Synergy MIC / standard BLI potentiation MIC assay, strains expressing KPC β-lactamases. The experiment is classed as cell-based. The note with it: more active for at least one KPC strain and/or better spectrum of activity than Avibactam; in the presence of a β-lactam. The method, then: as §1, §2, §3, §4, §5, §6

Take `N[C@H]1CN[C@H](c2nnc([C@@H]3CC[C@@H]4CN3C(=O)N4OS(=O)(=O)O)o2)C1` [Compound 762, (2S,5R)-2-(5-((2S,4R)-4-aminopyrrolidin-2-yl)-1,3,4-oxadiazol-2-yl)-7-oxo-1,6-diazabicyclo[3.2.1]octan-6-yl hydrogen sulfate]: the “activity against bacterial strains that express the class D cephalosporinase OXA-15, compared with Avibactam” value in experiment [1] is “more active than Avibactam”. Further, the “activity and/or spectrum of activity against bacterial strains that express KPC β-lactamases, compared with Avibactam” value in experiment [2] is on record as “more active than Avibactam”. As to `O=C1N2C[C@@H](CC[C@H]2c2nnc(C3CC4(CNC4)C3)o2)N1OS(=O)(=O)O` [Compound 750, (2S,5R)-2-(5-(2-azaspiro[3,3]heptan-6-yl)-1,3,4-oxadiazol-2-yl)-7-oxo-1,6-diazabicyclo[3.2.1]octan-6-yl hydrogen sulfate], the “activity against bacterial strains that express the class D cephalosporinase OXA-15, compared with Avibactam” value in experiment [1] was “more active than Avibactam”. In experiment [2], the “activity and/or spectrum of activity against bacterial strains that express KPC β-lactamases, compared with Avibactam” value is “more active than Avibactam”.

`O=C1N2C[C@@H](CC[C@H]2c2nnc(C3CNC3)o2)N1OS(=O)(=O)O` [Compound 708, (2S,5R)-2-(5-(azetidin-3-yl)-1,3,4-oxadiazol-2-yl)-7-oxo-1,6-diazabicyclo[3.2.1]octan-6-yl hydrogen sulfate]: in experiment [1], the “activity against bacterial strains that express the class D cephalosporinase OXA-15, compared with Avibactam” value is listed as “more active than Avibactam”. In experiment [2], the “activity and/or spectrum of activity against bacterial strains that express KPC β-lactamases, compared with Avibactam” value is recorded as “more active than Avibactam”. For `N=C(N)N1CC(NCc2nnc([C@@H]3CC[C@@H]4CN3C(=O)N4OS(=O)(=O)O)o2)C1` [Compound 746, (2S,5R)-2-(5-(((1-carbamimidoylazetidin-3-yl)amino)methyl)-1,3,4-oxadiazol-2-yl)-7-oxo-1,6-diazabicyclo[3.2.1]octan-6-yl hydrogen sulfate], the “activity against bacterial strains that express the class D cephalosporinase OXA-15, compared with Avibactam” value in experiment [1] is “more active than Avibactam”. In experiment [2], the “activity and/or spectrum of activity against bacterial strains that express KPC β-lactamases, compared with Avibactam” value was “more active than Avibactam”. Turning to `N=C(N)N1CC(Cc2nnc([C@@H]3CC[C@@H]4CN3C(=O)N4OS(=O)(=O)O)o2)C1` [Compound 741, (2S,5R)-2-(5-((1-carbamimidoylazetidin-3-yl)methyl)-1,3,4-oxadiazol-2-yl)-7-oxo-1,6-diazabicyclo[3.2.1]octan-6-yl hydrogen sulfate], in experiment [1], the “activity against bacterial strains that express the class D cephalosporinase OXA-15, compared with Avibactam” value was “more active than Avibactam”. Also, the “activity and/or spectrum of activity against bacterial strains that express KPC β-lactamases, compared with Avibactam” value in experiment [2] was “more active than Avibactam”.

For the compound `N[C@@H]1CN[C@@H](c2nnc([C@@H]3CC[C@@H]4CN3C(=O)N4OS(=O)(=O)O)o2)C1` [Compound 763, (2S,5R)-2-(5-((2R,4S)-4-aminopyrrolidin-2-yl)-1,3,4-oxadiazol-2-yl)-7-oxo-1,6-diazabicyclo[3.2.1]octan-6-yl hydrogen sulfate], the “activity against bacterial strains that express the class D cephalosporinase OXA-15, compared with Avibactam” value in experiment [1] is “more active than Avibactam”. Also, the “activity and/or spectrum of activity against bacterial strains that express KPC β-lactamases, compared with Avibactam” value in experiment [2] is “more active than Avibactam”.

For the compound `NC1CCN(Cc2nnc([C@@H]3CC[C@@H]4CN3C(=O)N4OS(=O)(=O)O)o2)CC1` [Compound 774, (2S,5R)-2-(5-((4-aminopiperidin-1-yl)methyl)-1,3,4-oxadiazol-2-yl)-7-oxo-1,6-diazabicyclo[3.2.1]octan-6-yl hydrogen sulfate], the “activity against bacterial strains that express the class D cephalosporinase OXA-15, compared with Avibactam” value in experiment [1] was “more active than Avibactam”. Also, the “activity and/or spectrum of activity against bacterial strains that express KPC β-lactamases, compared with Avibactam” value in experiment [2] is reported as “more active than Avibactam”. For `O=C1N2C[C@@H](CC[C@H]2c2nnc(CCCNC3CCNCC3)o2)N1OS(=O)(=O)O` [Compound 771, (2S,5R)-7-oxo-2-(5-(3-(piperidin-4-ylamino)propyl)-1,3,4-oxadiazol-2-yl)-1,6-diazabicyclo[3.2.1]octan-6-yl hydrogen sulfate], in experiment [1], the “activity against bacterial strains that express the class D cephalosporinase OXA-15, compared with Avibactam” value is “more active than Avibactam”. Further, in experiment [2], the “activity and/or spectrum of activity against bacterial strains that express KPC β-lactamases, compared with Avibactam” value is “more active than Avibactam”.

On to `NCc1nnc([C@@H]2CC[C@@H]3CN2C(=O)N3OS(=O)(=O)O)o1` [Compound 702, (2S,5R)-2-(5-(aminomethyl)-1,3,4-oxadiazol-2-yl)-7-oxo-1,6-diazabicyclo[3.2.1]octan-6-yl hydrogen sulfate], for which the “activity against bacterial strains that express the class D cephalosporinase OXA-15, compared with Avibactam” value in experiment [1] is on record as “more active than Avibactam”. Also, in experiment [2], the “activity and/or spectrum of activity against bacterial strains that express KPC β-lactamases, compared with Avibactam” value was “more active than Avibactam”. In the case of `NCCCCc1nnc([C@@H]2CC[C@@H]3CN2C(=O)N3OS(=O)(=O)O)o1` [Compound 735, (2S,5R)-2-(5-(4-aminobutyl)-1,3,4-oxadiazol-2-yl)-7-oxo-1,6-diazabicyclo[3.2.1]octan-6-yl hydrogen sulfate], the “activity against bacterial strains that express the class D cephalosporinase OXA-15, compared with Avibactam” value in experiment [1] is given as “more active than Avibactam”. Further, in experiment [2], the “activity and/or spectrum of activity against bacterial strains that express KPC β-lactamases, compared with Avibactam” value is given as “more active than Avibactam”.

Regarding `N=C(N)NCCc1nnc([C@@H]2CC[C@@H]3CN2C(=O)N3OS(=O)(=O)O)o1` [Compound 705, (2S,5R)-2-(5-(2-guanidinoethyl)-1,3,4-oxadiazol-2-yl)-7-oxo-1,6-diazabicyclo[3.2.1]octan-6-yl hydrogen sulfate], the “activity against bacterial strains that express the class D cephalosporinase OXA-15, compared with Avibactam” value in experiment [1] is given as “more active than Avibactam”. In experiment [2], the “activity and/or spectrum of activity against bacterial strains that express KPC β-lactamases, compared with Avibactam” value was “more active than Avibactam”.

As to `O=C1N2C[C@@H](CC[C@H]2c2nnc(CCNC3CCNCC3)o2)N1OS(=O)(=O)O` [Compound 770, (2S,5R)-7-oxo-2-(5-(2-(piperidin-4-ylamino)ethyl)-1,3,4-oxadiazol-2-yl)-1,6-diazabicyclo[3.2.1]octan-6-yl hydrogen sulfate], in experiment [1], the “activity against bacterial strains that express the class D cephalosporinase OXA-15, compared with Avibactam” value is given as “more active than Avibactam”. The “activity and/or spectrum of activity against bacterial strains that express KPC β-lactamases, compared with Avibactam” value in experiment [2] is reported as “more active than Avibactam”.

With `O=C1N2C[C@@H](CC[C@H]2c2nnc([C@H]3CCNC3)o2)N1OS(=O)(=O)O` [Compound 758, (2S,5R)-7-oxo-2-(5-((S)-pyrrolidin-3-yl)-1,3,4-oxadiazol-2-yl)-1,6-diazabicyclo[3.2.1]octan-6-yl hydrogen sulfate], the “activity against bacterial strains that express the class D cephalosporinase OXA-15, compared with Avibactam” value in experiment [1] is “more active than Avibactam”. Also, in experiment [2], the “activity and/or spectrum of activity against bacterial strains that express KPC β-lactamases, compared with Avibactam” value was “more active than Avibactam”.

For the compound `N=C(N)NC1CC(Cc2nnc([C@@H]3CC[C@@H]4CN3C(=O)N4OS(=O)(=O)O)o2)C1` (stereo partly drawn) [Compound 752, (2S,5R)-2-(5-((3-guanidinocyclobutyl)methyl)-1,3,4-oxadiazol-2-yl)-7-oxo-1,6-diazabicyclo[3.2.1]octan-6-yl hydrogen sulfate], the “activity against bacterial strains that express the class D cephalosporinase OXA-15, compared with Avibactam” value in experiment [1] is on record as “more active than Avibactam”. Further, the “activity and/or spectrum of activity against bacterial strains that express KPC β-lactamases, compared with Avibactam” value in experiment [2] is given as “more active than Avibactam”. Turning to `NC1CCN(CCc2nnc([C@@H]3CC[C@@H]4CN3C(=O)N4OS(=O)(=O)O)o2)CC1` [Compound 775, (2S,5R)-2-(5-(2-(4-aminopiperidin-1-yl)ethyl)-1,3,4-oxadiazol-2-yl)-7-oxo-1,6-diazabicyclo[3.2.1]octan-6-yl hydrogen sulfate], the “activity and/or spectrum of activity against bacterial strains that express KPC β-lactamases, compared with Avibactam” value in experiment [2] is given as “more active than Avibactam”.

The values above are taken from US20140315876A1, “BETA-LACTAMASE INHIBITORS” (priority 2013, published 2014).
